Here are results for two compounds from paper PMC11279465, “Dual Inhibitors of P-gp and Carbonic Anhydrase XII (hCA XII) against Tumor Multidrug Resistance with Piperazine Scaffold” (Molecules, 2024).

Data set [1] has as its target T1, P-gp (Homo sapiens, UniProt P08183). The data set is described as follows: P-gp ATPase activity (A549/DOX cells). In kind it is biochemical. More on the design: endogenous in cells; host or cells: HT29/DOX (A27) and A549/DOX (A28). The note with it: 1 µM, compared with A549. Here is the method: (§1) Plasma-membrane vesicles enriched with P-gp were prepared by sequential centrifugation as detailed previously. The ATPase activity of immunopurified P-gp was evaluated spectrophotometrically by measuring the absorbance of the phosphate hydrolyzed from ATP at 620 nm, using a Synergy HT Multi-Detection Microplate Reader (Bio-Tek Instruments). The absorbance was converted into μmol hydrolyzed phosphate/min/mg proteins, according to the titration curve previously prepared.

Data set [2] concerns HT29/DOX cells. Description: TBARS (lipid peroxidation, 4-HNE kit). Type of data set: cell-based, human. Particulars: 1 µM. Here is the method: (§2) Selected compounds have been tested for their cytotoxic activity at 24 h on HT29/DOX and A549/DOX cells and on the parental HT29 and A549 cells by MTT assay. To evaluate the mechanisms involved in CS, reactive oxygen species (ROS) were measured using the fluorescent probe 5-(and-6)-chloromethyl-2′,7′-dichlorodihydro-fluorescein diacetate-acetoxymethyl ester (DCFDA-AM), as previously reported. The results were expressed as nmol/mg cellular proteins. The amount of TBARS, as an index of lipoperoxidation, was measured with the Lipid Peroxidation (4-HNE) Assay Kit (Abcam, Cambridge, UK) that evaluates the 4-hydroxy-nonenale, one of the TBARS Results were expressed as nmoles/mg mitochondrial protein.

Data set [3] concerns A549/DOX cells. Description: TBARS (lipid peroxidation, 4-HNE kit). Type of data set: cell-based, human. The note with it: 1 µM. The method, then:
as §2

In data set [4] the target is T1, P-gp. The data set is described as follows: P-gp ATPase activity (HT29/DOX cells). In kind it is biochemical. The arrangement: endogenous in cells; host or cells: HT29/DOX (A27) and A549/DOX (A28). Particulars: 1 µM, compared with HT29. The method, then: as §1
Data set [5] deals with HT29/DOX cells. The data set is described as follows: Intrinsic cytotoxicity (MTT). Type of data set: cell-based, human. Particulars: 48 h; for toxicity: compound alone at 1 µM, HT29/DOX; for more cytotoxic in resistant cells than in parental sensitive cells: compound alone, 1 µM, HT29/DOX vs HT29. Summed up: (§3)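 Resistant HT29/DOX and A549/DOX cells exposed for 48 h to compounds from 10 nM to 50 µM; viability measured by MTT. Growth expressed as percentage of untreated control.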

Data set [6] has as its system A549/DOX cells. Description: Intrinsic cytotoxicity (MTT). The note with it: 48 h; for toxicity: compound alone at 1 µM, A549/DOX; for more cytotoxic in resistant cells than in parental sensitive cells: compound alone, 1 µM, A549/DOX vs A549. Type of data set: cell-based, human. Summed up: as §3
A further data set deals with A549 cells. The data set is described as follows: Intrinsic cytotoxicity (MTT). Type of data set: cell-based, human. The note with it: compound alone at 1 µM; parental A549; 48 h. Here is the method: (§4) All compounds were preliminarily studied to evaluate their intrinsic cytotoxicity at different concentrations (from 10 nM to 50 µM) in the parental HT29 and A549 and the resistant HT29/DOX and A549/DOX cells using the MTT assay.
(§5) The intrinsic toxicity of the studied compounds was determined by an MTT assay. K562 and K562/DOX were exposed for 72 h with compounds at 1 and 3 µM concentrations while HT29, A549, HT29/DOX and A549/DOX cells were incubated for 48 h with compounds used at different concentrations (from 10 nM to 50 µM). The percentage of growth compared to the untreated control was transformed into histograms with the GraphPad Prism 5 program.

In the next data set the test system is HT29 cells. Description: Intrinsic cytotoxicity (MTT). In kind it is cell-based, human. Particulars: compound alone at 1 µM; parental HT29; 48 h. The method, then: as §4, §5
Data set [7] deals with HT29/DOX cells. The data set is described as follows: ROS measurement (DCFDA-AM). In kind it is cell-based, human. The note with it: 1 µM. Here is the method: as §2
The subject of data set [8] is A549/DOX cells. Description: ROS measurement (DCFDA-AM). In kind it is cell-based, human. Particulars: 1 µM. The method, then: as §2
For a further data set, the system named is K562/DOX cells. Description: Doxorubicin cytotoxicity enhancement assay (MTT). The note with it: 72 h. In kind it is cell-based, human. Summed up:
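K562/DOX cells exposed 72 h to varying doxorubicin concentrations plus 1 or 3 µM test compound. Viability by MTT absorbance, expressed as percentage of untreated control cells.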

For the next data set, the target named is T2, hCA IX (Homo sapiens, UniProt Q16790).
T2 construct: made in house
The data set is described as follows: CA inhibition, stopped-flow CO2 hydrase assay. Particulars: stopped-flow technique; incubation time 6 h; mean of 3 assays. In kind it is biochemical. The procedure, abridged:
(§6)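 Stopped-flow CO2 hydration used saturated CO2 solutions at 25 °C as substrate. Enzyme and inhibitor (10 μM stocks in DMSO-water, diluted down to 0.01 nM) were preincubated for 6 h at room temperature.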

The next data set deals with T3, hCA I (Homo sapiens, UniProt P00915).
T3 construct: made in house
The data set is described as follows: CA inhibition, stopped-flow CO2 hydrase assay. Type of data set: biochemical. The note with it: stopped-flow technique; incubation time 6 h; mean of 3 assays. The procedure, abridged: as §6

A further data set deals with T4, hCA XII (Homo sapiens, UniProt O43570).
T4 construct: made in house
The data set is described as follows: CA inhibition, stopped-flow CO2 hydrase assay. In kind it is biochemical. Particulars: stopped-flow technique; incubation time 6 h; mean of 3 assays. The procedure, abridged: as §6

For a further data set, the target named is T5, hCA II (Homo sapiens, UniProt P00918).
T5 construct: made in house
Description: CA inhibition, stopped-flow CO2 hydrase assay. Type of data set: biochemical. The note with it: stopped-flow technique; incubation time 6 h; mean of 3 assays. The procedure, abridged: as §6

Data set [9] has as its system HT29/DOX cells. The data set is described as follows: Membrane fluidity. Type of data set: cell-based, human. The note with it: 1 µM. Here is the method:
(§7) Membrane fluidity was measured fluorometrically using the Membrane Fluidity Kit, Abcam, according to the manufacturer’s instructions.

For data set [10], the system named is A549/DOX cells. The data set is described as follows: Membrane fluidity. The note with it: 1 µM. Type of data set: cell-based, human. Here is the method: as §7

What is called Ki is a dissociation constant, usually derived from enzyme kinetics or from competition with a known ligand.

T1 sequence (P08183 whole entry): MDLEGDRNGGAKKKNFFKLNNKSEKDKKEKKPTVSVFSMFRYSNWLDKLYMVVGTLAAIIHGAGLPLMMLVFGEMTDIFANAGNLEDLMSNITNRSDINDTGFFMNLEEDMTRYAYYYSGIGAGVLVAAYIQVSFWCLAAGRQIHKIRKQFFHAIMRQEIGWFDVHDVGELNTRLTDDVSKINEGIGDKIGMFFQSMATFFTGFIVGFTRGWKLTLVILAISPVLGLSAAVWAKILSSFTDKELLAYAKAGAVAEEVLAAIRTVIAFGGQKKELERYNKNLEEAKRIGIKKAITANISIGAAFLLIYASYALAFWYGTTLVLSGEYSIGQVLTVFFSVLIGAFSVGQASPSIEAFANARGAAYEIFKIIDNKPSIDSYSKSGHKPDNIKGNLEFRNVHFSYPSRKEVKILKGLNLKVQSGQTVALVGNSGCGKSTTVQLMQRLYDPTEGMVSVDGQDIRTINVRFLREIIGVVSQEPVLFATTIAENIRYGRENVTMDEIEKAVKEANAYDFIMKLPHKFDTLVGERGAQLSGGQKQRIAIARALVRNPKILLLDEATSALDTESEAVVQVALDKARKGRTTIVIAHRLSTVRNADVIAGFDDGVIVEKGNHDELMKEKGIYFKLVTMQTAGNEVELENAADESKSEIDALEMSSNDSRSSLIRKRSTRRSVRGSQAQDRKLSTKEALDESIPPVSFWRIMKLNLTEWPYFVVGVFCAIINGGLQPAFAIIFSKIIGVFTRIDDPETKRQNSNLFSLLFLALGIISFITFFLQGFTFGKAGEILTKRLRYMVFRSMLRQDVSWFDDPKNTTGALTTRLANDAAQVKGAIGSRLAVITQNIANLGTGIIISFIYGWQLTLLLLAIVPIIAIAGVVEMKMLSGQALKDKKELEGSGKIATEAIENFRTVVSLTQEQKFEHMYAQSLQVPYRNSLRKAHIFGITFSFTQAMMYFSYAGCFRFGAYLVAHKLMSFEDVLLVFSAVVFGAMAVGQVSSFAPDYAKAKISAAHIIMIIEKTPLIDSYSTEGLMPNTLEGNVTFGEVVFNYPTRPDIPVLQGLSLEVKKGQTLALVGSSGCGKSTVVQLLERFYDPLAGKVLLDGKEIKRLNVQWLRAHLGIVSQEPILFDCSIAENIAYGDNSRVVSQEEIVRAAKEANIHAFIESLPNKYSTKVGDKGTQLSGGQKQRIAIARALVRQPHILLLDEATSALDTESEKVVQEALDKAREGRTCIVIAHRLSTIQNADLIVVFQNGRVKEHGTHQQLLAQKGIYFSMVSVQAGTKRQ
T3 sequence (P00915 whole entry): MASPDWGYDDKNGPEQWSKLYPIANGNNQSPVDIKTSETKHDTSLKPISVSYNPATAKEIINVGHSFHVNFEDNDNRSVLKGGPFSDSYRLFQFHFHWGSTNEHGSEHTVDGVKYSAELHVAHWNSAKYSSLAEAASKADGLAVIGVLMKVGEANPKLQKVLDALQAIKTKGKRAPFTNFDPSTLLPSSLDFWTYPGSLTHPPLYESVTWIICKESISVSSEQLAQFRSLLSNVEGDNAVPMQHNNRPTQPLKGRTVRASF
T4 sequence (O43570 25-354): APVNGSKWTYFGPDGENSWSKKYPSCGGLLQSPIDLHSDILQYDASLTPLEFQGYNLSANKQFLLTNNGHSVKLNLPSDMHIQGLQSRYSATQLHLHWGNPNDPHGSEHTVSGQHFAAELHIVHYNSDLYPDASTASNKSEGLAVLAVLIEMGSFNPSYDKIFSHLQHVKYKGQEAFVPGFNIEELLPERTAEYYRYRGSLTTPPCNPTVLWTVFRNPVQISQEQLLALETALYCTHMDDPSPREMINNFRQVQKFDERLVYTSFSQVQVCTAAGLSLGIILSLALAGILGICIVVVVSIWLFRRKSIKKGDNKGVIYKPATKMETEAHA

In the case of `COc1ccc(C(CCCN2CCN(CCCCOc3ccc4ccc(=O)oc4c3)CC2)c2ccc(OC)cc2)cc1` [Compound 27, 7-(4-(4-(4,4-Bis(4-methoxyphenyl)butyl)piperazin-1-yl)butoxy)-2H-chromen-2-one], the P-gp catalytic activity entry at P-gp [1] is “lowered the catalytic efficacy of P-gp in resistant cells to levels comparable to drug-sensitive HT29 and A549 cells”; on P-gp [4], “lowered the catalytic efficacy of P-gp in resistant cells to levels comparable to drug-sensitive HT29 and A549 cells”. Further, the “increase of TBARS levels compared to the control” value in the data set with HT29/DOX cells [2] is 2.6 times; in the data set with A549/DOX cells [3], 4 times. For the same compound, the toxicity in the data set with HT29/DOX cells [5], in the data set on A549/DOX cells [6], with A549 cells and in the data set on HT29 cells was ≥ 35% each time. Further, the “more cytotoxic in resistant cells than in parental sensitive cells” value in the data set on HT29/DOX cells [5] and in the data set with A549/DOX cells [6] was 15%-20% throughout. The “increase of ROS levels compared to the control” value in the data set on HT29/DOX cells [7] was 3–4 times; with A549/DOX cells [8] it was 7–8 times. The “RF (Reversal Fold: IC50 of doxorubicin alone / in presence of modulator)” value in the data set on K562/DOX cells (compound at 1 µM) stood at 8.1. Besides, the Ki was 145 nM at hCA IX, > 10000 nM at hCA I, 92.1 nM on hCA XII and > 10000 nM on hCA II. Besides, the membrane fluidity entry in the data set with HT29/DOX cells [9] and in the data set with A549/DOX cells [10] was “increased membrane fluidity” throughout.

With `COc1ccc(C(CCCN2CCN(CCCOc3ccc4oc(=O)ccc4c3)CC2)c2ccc(OC)cc2)cc1` [Compound 32, 6-(3-(4-(4,4-Bis(4-methoxyphenyl)butyl)piperazin-1-yl)propoxy)-2H-chromen-2-one], the P-gp catalytic activity entry on P-gp [1] was “lowered the catalytic efficacy of P-gp in resistant cells to levels comparable to drug-sensitive HT29 and A549 cells”; at P-gp [4], “lowered the catalytic efficacy of P-gp in resistant cells to levels comparable to drug-sensitive HT29 and A549 cells”. In addition, the entries for the “increase of TBARS levels compared to the control” value in the data set with HT29/DOX cells [2] and with A549/DOX cells [3] were 2.6 times and 4 times, respectively. The toxicity in the data set on HT29/DOX cells [5], in the data set on A549/DOX cells [6], with A549 cells and with HT29 cells was ≥ 35% each time. For the same compound, the “more cytotoxic in resistant cells than in parental sensitive cells” value in the data set on HT29/DOX cells [5] and in the data set on A549/DOX cells [6] was 15%-20% throughout. Further, the “increase of ROS levels compared to the control” value in the data set with HT29/DOX cells [7] was 3–4 times; in the data set on A549/DOX cells [8] it was 7–8 times. Further, the figures for the “RF (Reversal Fold: IC50 of doxorubicin alone / in presence of modulator)” value in the data set with K562/DOX cells (compound at 1 µM) and in the data set on K562/DOX cells (compound at 3 µM) were 3.6 and 7.9, respectively. The Ki at hCA IX is 89.6 nM; on hCA I it was > 10000 nM; on hCA XII, 71.5 nM; at hCA II, > 10000 nM. For the same compound, the membrane fluidity entry in the data set with HT29/DOX cells [9] and in the data set with A549/DOX cells [10] was “increased membrane fluidity” throughout.
